Measured values from patent US20220378807A1, “DELIVERY OF A COOLING AGENT TO THE PHARYNGEAL-ESOPHAGEAL SURFACE” (priority 2019, published 2022).
In brackets after ≈: the same amount, converted by molar mass. Entries after “also recorded” stand apart in the source; their conditions may differ. Like-named read-outs stand apart in the source and are kept apart here.

Tests used:
[1] = Water solubility of 1-dialkylphosphinoylalkanes; assay type: physicochemical; settings: R1R2R3P=O, by R1,R2 and R3
Eyelids Surfaces = test: Cooling on eyelid surfaces; assay type: in vivo; settings: p-menthane compounds, Table 8
[2] = tested on: throat (Adam's apple, jugular notch, upper chest); assay type: in vivo, human; parameters: key to Jugular Notch / Sternum: cooling rated on a 0-3 scale; Onset: unit not given here; settings: for Duraton: duration of cooling after swallowing Shaped-Gel; for Discomfort: in vivo; for Onset: onset of cooling after swallowing Shaped-Gel, no unit in head (min); for Jugular Notch: cooling felt at jugular notch
Procedure: Shaped-Gel having total weight of 0.4 to 1.2 g containing 0.4 to 1.5% by weight (5 mg/g to 15 mg/g) are prepared and tested. The following examples illustrate the invention, but are not intended to limit the scope of the present invention. A Shaped-Gel in accordance with the present invention was prepared with the following composition.
Shaped-Gels were prepared by these procedures. First step, the cooling agent was accurately weighed and place in a 60 mL plastic container. Then glycerol, water, and gelatin was added to the container and centrifuged for 2 min in a SpeedMixer (FlackTek, Inc.) at 3000 rpm. Then gelatin powder was added and the mixture centrifuged for 3 min. The container was warmed by placing it in a beaker containing hot water (80-85° C.) for 15 min. The container was then centrifuged for 5 min. The liquid mix was cooled and dispensed onto silicon molds with a plastic dropper, and placed in a refrigerator. After one hour, the gels were solidified, removed from the mold with a plastic tweezer, weighed and placed on wax paper and later stored in blister pockets. […] In preliminary studies, the shape of the Shaped-Gel was varied. Square, rectangular, spherical, hemispherical, toroidal, and pentagram Shaped-Gels were prepared at sizes ranging from 0.4 to 1.2 g. A flat shape wherein the shortest diameter was about 20% of the longest axis was preferred because it could be placed flat on the back of the tongue. A Shaped-Gel shaped as a rectangular prism of 2.75 mm×15 mm×15 mm=0.63 cm3 and weighing ˜0.6 g was acceptable to subjects. A toroid, much like a “LiveSaver” mint was also acceptable if the size was ˜0.8 g. Test Panel: The volunteers for testing the Shaped-Gel were six subjects, four males and two females, aged 50 to 76 years. Each Shaped-Gel was tested for at least four trials in at least three subjects. The concentration of the cooling agent in the Shaped-Gel varied from 0.5 to 2%. The duration of observation for each trial usually lasted for not more than 1.5 hours. Subjects were instructed to swallow the Shaped-Gel with a sip of […] water. Cooling sensations were rated on a scale of 0, 1, 2, 3, at intervals of 3 min, 5 min, and then at 10 min intervals. If a cooling value exceeded 2, the subject noted whether the cooling was felt at the level of the Adam's apple, jugular notch or upper chest. Ancillary effects were also recorded.

Philtrum Skin = test: Cooling on philtrum skin; assay type: in vivo; settings: p-menthane compounds, Table 8
[3] = target: T1, cloned hTRPM8 channel (human TRPM8 gene, expressed in CHO cells) (Homo sapiens, UniProt Q7Z2W7); test: TRPM8 agonist activity, Fluo-8 calcium FLIPR assay; assay type: cell-based; settings: for Potency relative to menthol / EC50: p-menthane compounds, Table 8; for EC50: 95% limits printed in line below; for Relative Potency to L-menthol: from TRPM8 EC50, menthol = 1.0
T1 construct: host or cells: CHO cells
Procedure: In the first set of data, the potency and in vitro effects of test compounds were evaluated on cloned hTRPM8 channel (encoded by the human TRPM8 gene, expressed in CHO cells) using a Fluo-8 calcium kit and a Fluorescence Imaging Plate Reader (FLIPR^TETRATM) instrument. […] Test solutions were in HEPES-buffered saline, 384-well plates, and placed into the FLIPR instrument (Molecular Devices Corporation, Union City, Calif., USA). […] The test cells were Chinese Hamster Ovary (CHO) cells stably transfected with human TRPM8 cDNAs. The concentration-response data were analyzed via FLIPR Control software and fitted to a Hill equation for the EC50.

Oral Cavity and Pharynx [4] = test: Study 2: sensory qualities of compounds applied to oral cavity and pharynx; assay type: in vivo, human; settings: for sensations produced (cooling intensity, cold discomfort, adverse taste): ~0.8 mL per dose to base of tongue, four volunteers
Procedure: Tests were on four volunteers, with 3 to 5 trials per substance. Compounds were prepared in cherry-flavored Shaped-Gel at 5 mg/mL and administered ˜0.8 mL per dose with a 2 mL plastic vial to the base of the tongue. The subjects asked to rate the sensations for cooling intensity, cold discomfort and adverse taste.

[5] = target: T2, TRPA1 channels (human TRPA1 gene expressed in CHO cells) (Homo sapiens, UniProt O75762); settings: data in Yang et al. BMC Ophthalmology 17:101 and Wei US 9,956,232; cited from earlier work
T2 construct: expressed in transfected cells; host or cells: CHO cells

[6] = target: T3, TRPV1 channels (human TRPV1 gene expressed in HEK293 cells) (Homo sapiens, UniProt Q8NER1); settings: data in Yang et al. BMC Ophthalmology 17:101 and Wei US 9,956,232; cited from earlier work
T3 construct: expressed in transfected cells; host or cells: HEK293 cells

Oral Cavity and Pharynx [7] = test: Study 2: sensory qualities of compounds applied to oral cavity and pharynx; assay type: in vivo, human

T2 sequence (O75762 whole entry): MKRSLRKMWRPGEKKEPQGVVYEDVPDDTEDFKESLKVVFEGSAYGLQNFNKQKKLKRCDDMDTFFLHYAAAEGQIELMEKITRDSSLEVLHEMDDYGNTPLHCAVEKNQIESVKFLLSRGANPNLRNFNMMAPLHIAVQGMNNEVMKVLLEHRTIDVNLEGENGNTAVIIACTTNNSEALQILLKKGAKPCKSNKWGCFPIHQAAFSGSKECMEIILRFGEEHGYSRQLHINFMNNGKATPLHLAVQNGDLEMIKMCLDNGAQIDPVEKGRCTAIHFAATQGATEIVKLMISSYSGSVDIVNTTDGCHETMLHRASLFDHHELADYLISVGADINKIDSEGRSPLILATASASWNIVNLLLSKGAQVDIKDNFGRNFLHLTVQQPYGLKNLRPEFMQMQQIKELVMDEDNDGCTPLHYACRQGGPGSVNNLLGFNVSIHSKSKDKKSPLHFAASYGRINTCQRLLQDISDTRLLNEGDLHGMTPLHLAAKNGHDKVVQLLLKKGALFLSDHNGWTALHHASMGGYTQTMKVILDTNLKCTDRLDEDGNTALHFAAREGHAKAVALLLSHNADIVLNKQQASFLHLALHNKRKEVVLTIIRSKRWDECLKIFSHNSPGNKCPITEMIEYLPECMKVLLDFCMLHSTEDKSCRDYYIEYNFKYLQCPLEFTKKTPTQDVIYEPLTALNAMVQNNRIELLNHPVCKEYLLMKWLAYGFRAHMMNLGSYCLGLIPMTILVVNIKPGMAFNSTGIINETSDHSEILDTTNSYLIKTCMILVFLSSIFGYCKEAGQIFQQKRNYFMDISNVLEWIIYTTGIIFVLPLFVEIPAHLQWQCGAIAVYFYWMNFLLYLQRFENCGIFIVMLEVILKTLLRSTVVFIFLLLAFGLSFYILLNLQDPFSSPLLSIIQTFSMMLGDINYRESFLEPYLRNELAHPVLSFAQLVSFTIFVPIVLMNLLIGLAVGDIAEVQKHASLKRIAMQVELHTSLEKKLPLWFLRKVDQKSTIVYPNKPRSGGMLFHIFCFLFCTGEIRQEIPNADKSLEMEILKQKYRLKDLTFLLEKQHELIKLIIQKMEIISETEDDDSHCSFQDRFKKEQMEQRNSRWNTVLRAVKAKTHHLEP
T3 sequence (Q8NER1 whole entry): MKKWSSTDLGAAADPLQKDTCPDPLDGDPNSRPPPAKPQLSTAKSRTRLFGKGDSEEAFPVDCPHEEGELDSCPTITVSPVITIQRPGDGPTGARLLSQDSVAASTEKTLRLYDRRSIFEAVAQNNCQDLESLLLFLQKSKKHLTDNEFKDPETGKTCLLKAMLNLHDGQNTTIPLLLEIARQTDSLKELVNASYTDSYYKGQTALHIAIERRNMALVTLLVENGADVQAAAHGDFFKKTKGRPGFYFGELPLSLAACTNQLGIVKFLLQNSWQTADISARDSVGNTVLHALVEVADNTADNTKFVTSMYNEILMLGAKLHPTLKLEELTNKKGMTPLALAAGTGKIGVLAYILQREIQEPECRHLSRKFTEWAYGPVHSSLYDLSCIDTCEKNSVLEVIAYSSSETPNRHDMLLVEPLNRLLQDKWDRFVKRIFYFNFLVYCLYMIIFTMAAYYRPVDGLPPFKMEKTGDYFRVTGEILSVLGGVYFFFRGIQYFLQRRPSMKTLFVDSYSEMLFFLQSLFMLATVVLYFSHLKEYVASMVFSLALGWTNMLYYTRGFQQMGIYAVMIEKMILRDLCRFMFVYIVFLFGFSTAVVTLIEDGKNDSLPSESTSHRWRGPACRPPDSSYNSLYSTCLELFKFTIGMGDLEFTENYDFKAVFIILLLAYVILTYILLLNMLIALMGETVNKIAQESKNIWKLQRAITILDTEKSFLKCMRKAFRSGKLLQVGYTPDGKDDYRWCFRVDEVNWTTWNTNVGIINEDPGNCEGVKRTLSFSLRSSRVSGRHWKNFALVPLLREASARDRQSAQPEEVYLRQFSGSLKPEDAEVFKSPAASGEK
T1 sequence (Q7Z2W7 whole entry): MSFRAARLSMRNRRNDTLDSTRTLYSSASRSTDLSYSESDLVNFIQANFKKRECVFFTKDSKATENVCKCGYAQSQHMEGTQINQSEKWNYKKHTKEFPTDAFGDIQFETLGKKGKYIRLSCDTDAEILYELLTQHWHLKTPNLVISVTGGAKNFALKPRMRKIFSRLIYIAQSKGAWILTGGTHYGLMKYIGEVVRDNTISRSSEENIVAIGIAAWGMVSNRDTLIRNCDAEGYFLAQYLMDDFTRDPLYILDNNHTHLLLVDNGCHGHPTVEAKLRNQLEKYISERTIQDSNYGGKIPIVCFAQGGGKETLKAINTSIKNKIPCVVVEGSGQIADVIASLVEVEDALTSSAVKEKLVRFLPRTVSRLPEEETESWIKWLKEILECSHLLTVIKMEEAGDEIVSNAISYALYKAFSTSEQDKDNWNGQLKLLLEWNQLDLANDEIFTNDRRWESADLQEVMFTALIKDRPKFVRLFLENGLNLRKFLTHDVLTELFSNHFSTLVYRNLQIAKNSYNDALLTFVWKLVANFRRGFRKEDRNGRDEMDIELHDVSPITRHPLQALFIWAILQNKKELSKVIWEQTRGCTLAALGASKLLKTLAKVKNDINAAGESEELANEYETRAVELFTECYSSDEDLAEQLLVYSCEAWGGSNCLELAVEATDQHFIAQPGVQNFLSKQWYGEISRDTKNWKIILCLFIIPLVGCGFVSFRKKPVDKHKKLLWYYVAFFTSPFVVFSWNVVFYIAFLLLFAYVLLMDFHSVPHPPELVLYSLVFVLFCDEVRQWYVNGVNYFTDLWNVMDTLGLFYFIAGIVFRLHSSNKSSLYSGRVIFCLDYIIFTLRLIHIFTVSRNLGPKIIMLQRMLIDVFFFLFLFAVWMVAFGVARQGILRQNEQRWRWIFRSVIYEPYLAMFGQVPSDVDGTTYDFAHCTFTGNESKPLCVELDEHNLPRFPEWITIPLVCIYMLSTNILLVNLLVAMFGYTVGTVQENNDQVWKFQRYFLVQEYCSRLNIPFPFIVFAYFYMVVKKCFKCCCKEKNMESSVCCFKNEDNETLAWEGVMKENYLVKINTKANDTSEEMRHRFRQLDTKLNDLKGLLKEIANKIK

In the case of `CCCCCCC[P@@](=O)(C(C)C)C(C)CC` (stereo partly drawn) [3,4-7, 1-(Isopropyl-sec-butyl)-phosphinoyl-heptane], the solubility [1] is reported as 20 mg/mL (≈ 81.2 mM).

For `CC(C)OC(=O)CNC(=O)[C@@H]1C[C@H](C)CC[C@H]1C(C)C` [Ax-8], the “Eyelids Surfaces” value (Eyelids Surfaces) was 300 min, the Duraton [2] was 35 min and the Discomfort [2] was “yes”. For the same compound, the Onset [2] was 5, the “Philtrum Skin” value (Philtrum Skin) was 27 min and the “Potency relative to menthol” value [3] was 7.6. It also gave an EC50 [3] of 500 nM.

For `CCOC(=O)C(C)NC(=O)[C@@H]1C[C@H](C)CC[C@H]1C(C)C` (stereo partly drawn) [D-Ala-OEt], the “Eyelids Surfaces” value (Eyelids Surfaces) was 180 min, the “Philtrum Skin” value (Philtrum Skin) was 103 min and the “Potency relative to menthol” value [3] was 14.0.

With `CC(C)OC(=O)C(C)NC(=O)[C@@H]1C[C@H](C)CC[C@H]1C(C)C` (stereo partly drawn) [D-Ala-OiPr] the “Eyelids Surfaces” value (Eyelids Surfaces) was 360 min, the “Philtrum Skin” value (Philtrum Skin) was 34 min and the “Potency relative to menthol” value [3] was 14.6.

With `CCCCP(=O)(C(C)CC)C(C)CC` (stereo not drawn) [DAPA-2-4, 1-Di(sec-butyl)-phosphinoyl-butane] the “Relative Potency to L-menthol” value [3] was 0.3.

For `CCCCCP(=O)(C(C)CC)C(C)CC` (stereo not drawn) [DAPA-2-5, 1-di-sec-butyl-phosphorylpentane], the “Relative Potency to L-menthol” value [3] was 2.2.

For `CCCCCCP(=O)(C(C)CC)C(C)CC` (stereo not drawn) [DAPA-2-6, 1-Di(sec-butyl)-phosphinoyl-hexane], the “Adam's Apple” value ([2]; cooling felt at Adam's apple, Shaped-Gel) was “+++ icy”, the “Jugular Notch” value ([2]; Shaped-Gel) was “++ icy” and the Duraton [2] was 30 min. The Discomfort [2] was “yes”, the Onset [2] was under 3 and the “unpleasant taste, description” value (Oral Cavity and Pharynx [4]; 5 mg/mL) was ““metallic”, “organic solvent-like”, and “harsh””. For the same compound, the “sensations produced (cooling intensity, cold discomfort, adverse taste)” value (“sensations produced” for short) (Oral Cavity and Pharynx [4]; 5 mg/mL) was “cold, icy cold, and adverse tastes” and the “Relative Potency to L-menthol” value [3] was 4.7.

In the case of `CCCCCCCP(=O)(C(C)CC)C(C)CC` (stereo not drawn) [DAPA-2-7, 1-Di(sec-butyl)-phosphinoyl-heptane], the “unpleasant taste, description” value (Oral Cavity and Pharynx [4]; 5 mg/mL) is reported as ““metallic”, “organic solvent-like”, and “harsh””, the “sensations produced” value (Oral Cavity and Pharynx [4]; 5 mg/mL) is reported as “cold, icy cold, and adverse tastes” and the “Relative Potency to L-menthol” value [3] is reported as 3.4.

In the case of `CCCCCCCCP(=O)(C(C)CC)C(C)CC` (stereo not drawn) [DAPA-2-8, 1-Di(sec-butyl)-phosphinoyl-octane], the “unpleasant taste, description” value (Oral Cavity and Pharynx [4]; 5 mg/mL) is reported as ““metallic”, “organic solvent-like”, and “harsh”” and the “Relative Potency to L-menthol” value [3] is reported as 2.9.

For `CCCCCP(=O)(CC(C)C)CC(C)C` [DAPA-3-1, 1-di(iso-butyl) phosphinoyl-pentane], the “TRPM8 potency / bioactivity in words” value [3] was “significant loss of bioactivity” and the “Relative Potency to L-menthol” value [3] was 0.2.

In the case of `CCC(C)P(=O)(CCC(C)C)C(C)CC` (stereo not drawn) [DAPA-3-2, 1-Di(sec-butyl)-phosphinoyl-3-methyl-butane], the “TRPM8 potency / bioactivity in words” value [3] is reported as “significant loss of bioactivity” and the “Relative Potency to L-menthol” value [3] is reported as 0.9.

For `CCCCCP(=O)(C(C)C)C(C)C` [DIPA-1-5, 1-Di(isopropyl)-phosphinoyl-pentane], the “Relative Potency to L-menthol” value [3] was 0.7.

In the case of `CCCCCCP(=O)(C(C)C)C(C)C` [DIPA-1-6, 1-Di(isopropyl)-phosphinoyl-hexane], the “Relative Potency to L-menthol” value [3] is reported as 1.6.

For `CCCCCCCP(=O)(C(C)C)C(C)C` [DIPA-1-7, 1-Di(isopropyl)-phosphinoyl-heptane], the “selectivity: TRPM8 versus TRPA1” value [5] is given as “Selectivity is also seen”, the cold discomfort (Oral Cavity and Pharynx [4]; 5 mg/mL) is given as “icy cold; also recorded: icy pain in the back of the throat” and the “unpleasant taste, description” value (Oral Cavity and Pharynx [4]; 5 mg/mL) is given as ““metallic”, “organic solvent-like”, and “harsh””. For the same compound, the “sensations produced” value (Oral Cavity and Pharynx [4]; 5 mg/mL) was “cold, icy cold, and adverse tastes”, the strong metallic taste (Oral Cavity and Pharynx [4]; in vivo) was “present” and the “Relative Potency to L-menthol” value [3] was 5.4. The “selectivity: TRPM8 versus TRPV1” value [6] was “Selectivity is also seen”.

For `CCCCCCCCP(=O)(C(C)C)C(C)C` [DIPA-1-8, 1-Di(isopropyl)-phosphinoyl-octane], the “selectivity: TRPM8 versus TRPA1” value [5] is given as “Selectivity is also seen”, the “unpleasant taste, description” value (Oral Cavity and Pharynx [4]; 5 mg/mL) is given as ““metallic”, “organic solvent-like”, and “harsh”” and the “sensations produced” value (Oral Cavity and Pharynx [4]; 5 mg/mL) is given as “cold, icy cold, and adverse tastes”. The strong metallic taste (Oral Cavity and Pharynx [4]; in vivo) was “present”, the “Relative Potency to L-menthol” value [3] was 5.4 and the “selectivity: TRPM8 versus TRPV1” value [6] was “Selectivity is also seen”.

In the case of `CCCCCCCCCP(=O)(C(C)C)C(C)C` [DIPA-1-9, 1-Di(isopropyl)-phosphinoyl-nonane], the “icy cold, pain or discomfort at increased concentration” value (Oral Cavity and Pharynx [7]; 5, 8 to 15 mg/mL, 0.8 mL per dose) is reported as “no pain or discomfort; also recorded: did not produce icy cold or pain”, the “sensation in the oropharynx and esophagus” value (Oral Cavity and Pharynx [7]; optimized concentrations of 5 to 10 mg/mL) is reported as “perfect cool in the oropharynx and esophagus but without cold discomfort” and the “onset of sensation of coolness in the throat” value ([2]; Shaped-Gel applied to base of tongue) is reported as 3 min. It also gave a Discomfort ([2]; both, human) of 0, a Duraton [2] of about 60 min and an Onset [2] of under 3. The “selectivity: TRPM8 versus TRPA1” value [5] was “selective for TRPM8 and not TRPVI and TRPA1”, the “sensations produced” value (Oral Cavity and Pharynx [4]; 5 mg/mL) was “coolness and cold which was well-tolerated” and the “general sense of refreshment in the throat, persistence” value (Oral Cavity and Pharynx [4]; in vivo) was at least 3 h. For the same compound, the strong metallic taste (Oral Cavity and Pharynx [4]; in vivo) was “does not have a strong metallic taste”, the “Relative Potency to L-menthol” value [3] was 4.0 and the “selectivity: TRPM8 versus TRPV1” value [6] was “selective for TRPM8 and not TRPVI and TRPA1”.

In the case of `CCOC(=O)CNC(=O)[C@@H]1C[C@H](C)CC[C@H]1C(C)C` [WS-5], the “Eyelids Surfaces” value (Eyelids Surfaces) is reported as 15 min, the Discomfort ([2]; both, human) is reported as 0 and the Duraton [2] is reported as 25 min. For the same compound, the Onset [2] was about 3, the “Philtrum Skin” value (Philtrum Skin) was 24 min and the “Potency relative to menthol” value [3] was 10.6. The EC50 [3] was 360 nM.

For `COc1ccc(NC(=O)[C@@H]2C[C@H](C)CC[C@H]2C(C)C)cc1` [WS-12], the “Jugular Notch” value ([2]; Shaped-Gel) was 0, the Sternum ([2]; cooling felt at sternum, Shaped-Gel) was 0 and the Duraton [2] was 20 min. The Discomfort [2] was 0 and the Onset [2] was 5.

Compound `CC1CCC(C(C)C)C(C(=O)OCC(O)CO)C1` (stereo not drawn) [WS-30] has a Duraton [2] of 25 min, a Discomfort [2] of 0 and an Onset [2] of about 3.
